In US12357598B2, “Treatment of neurodevelopmental disorders” (THE REGENTS OF THE UNIVERSITY OF CALIFORNIA, priority 2018, dated 2025):

Target: T1, sEH (Homo sapiens, UniProt P34913)
T1 sequence (P34913 1-555): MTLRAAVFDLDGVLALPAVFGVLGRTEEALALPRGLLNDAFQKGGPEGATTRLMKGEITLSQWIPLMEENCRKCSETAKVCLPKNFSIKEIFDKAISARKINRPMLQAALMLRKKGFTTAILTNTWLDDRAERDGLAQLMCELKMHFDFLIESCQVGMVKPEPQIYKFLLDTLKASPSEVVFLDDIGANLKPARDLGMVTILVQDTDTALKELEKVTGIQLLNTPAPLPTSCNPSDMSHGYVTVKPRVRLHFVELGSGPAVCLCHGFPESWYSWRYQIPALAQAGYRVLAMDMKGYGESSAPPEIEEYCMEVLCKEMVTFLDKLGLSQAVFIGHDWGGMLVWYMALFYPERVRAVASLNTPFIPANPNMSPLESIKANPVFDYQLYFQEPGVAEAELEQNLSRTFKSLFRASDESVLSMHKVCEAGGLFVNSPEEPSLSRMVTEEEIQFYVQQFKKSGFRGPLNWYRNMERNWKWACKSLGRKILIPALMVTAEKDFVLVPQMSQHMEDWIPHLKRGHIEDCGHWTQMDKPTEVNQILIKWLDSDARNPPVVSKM
Test: Testing of ureas and lipid alkoxides as sEH inhibitors
Format: biochemical
Text: (Both the 1- and the 2-adamantyl ureas have been tested and have about the same high activity as an inhibitor of sEH. Thus, isomers of adamantyl dodecyl urea are preferred inhibitors. It is further expected that N, N′-dodecyl-cyclohexyl urea (DCU), and other inhibitors of sEH, and particularly dodecanoic acid ester derivatives of urea, are suitable for use in the methods. Preferred inhibitors include without limitation:
U.S. Pat. No. 5,955,496 (the '496 patent) also sets forth a number of sEH inhibitors which can be used in the methods. One category of these inhibitors comprises inhibitors that mimic the substrate for the enzyme. The lipid alkoxides (e.g., the 9-methoxide of stearic acid) are an exemplar of this group of inhibitors.

SMILES: CCCCCCCCCCCCNC(=O)NC12CC3CC(CC(C3)C1)C2 [ADU, N-Adamantyl-N′-dodecyl urea]
- activity as an inhibitor of sEH: particularly high activity
